Here are results for one compound from patent US20260174863A1, “ISOMERICALLY PURE BETA-CYCLODEXTRIN DERIVATIVES AND USES THEREOF” (Beren Therapeutics P.B.C., priority 2023, published 2026).

For data set [1], the system named is differentiated human THP-1 monocytes. As to the kind of experiment: Cytotoxicity assay, lactate dehydrogenase (LDH) release (CytoTox 96, Promega G1780). It counts as cell-based. The note with it: samples from CEC assay, reference standard = non-isomerically pure hydroxypropyl beta-cyclodextrin. On the procedure:
Cytotoxicity was measured using a lactate dehydrogenase (LDH) assay, according to the manufacturer's protocol (CytoTox 96® Non-Radioactive Cytotoxicity Assay, Promega, G1780). Supernatants and cell lysates from CEC assay served as samples. Briefly, 50 uL of supernatant and cell lysates were transferred into separate transparent 96-well plates. 50 uL CytoTox 96© Reagent was added to the wells, mixed by pipetting, and incubated for 10 minutes protected from light. 50 μL of Stop Solution was added, mixed by pipetting, and absorbance (OD) was measured at 490 nm in a plate reader. Phenol red-free RPMI with 10% […] and Cell Lysis Buffer (abcam, ab196985) served as background controls. Percent (%) cytotoxicity was measured as OD supernatant/(OD supernatant+OD cell lysate)×100%.
Lactate dehydrogenase (LDH) released from cells treated with compounds of the disclosure at concentrations of 0.1 mM, 0.3 mM and 1 mM, relative to LDH) released from cells treated with a reference standard, are summarized in Table 2. In the table, A denotes compounds releasing LDH in an amount of <70% of that of the reference standard; B denotes compounds releasing LDH in an amount of 71-95% of that of the reference standard; 0 denotes compounds releasing LDH in an amount of 96%-105% of that of the reference standard; +denotes compounds releasing LDH in an amount of 106%-120% of that of the reference standard; and ++denotes compounds releasing LDH in an amount of >120% of that of the reference standard The reference standard is a non-isomerically pure hydroxypropyl beta-cyclodextrin.

Data set [2] shares this test system. As to the kind of experiment: CEC - Cholesterol Efflux Assay (abcam ab196985). It counts as cell-based. The note with it: 4 h, reference standard = non-isomerically pure hydroxypropyl beta-cyclodextrin. Here is the method:
Cholesterol Efflux from differentiated human THP-1 monocytes was assessed according to the manufacturer's protocol (abcam, ab196985). Briefly, THP-1 monocytes were differentiated for 48 h in presence of 100 nM phorbol 12-myristate-13-acetate (PMA) in RPMI 1640 growth medium (10% FCS, 1% penicillin/streptomycin) in a humidified incubator (37° C., 5% CO2). Differentiated THP-1 macrophage-like cells were harvested, washed with PBS, resuspended in growth medium, seeded at 1×10^5 cells into 96-well plates, and allowed to adhere for 6h. Cells were washed with serum-free RPMI media, and labelled with 100 μL of fluorescent cholesterol labelling medium (50 uL Labeling Reagent+50 uL serum-free RPMI) for 1 h protected from light. Labeling medium was removed and replaced with 100 μL, 37° C. pre-warmed equilibration medium (50 uL Equilibration Buffer+[…] Reagent A +10 μL/mL Reagent B+50 uL serum-free RPMI) and incubated for 16±1 h in an incubator (37° C., 5% CO2). Equilibration medium was removed, and cells were washed with RPMI (w/o phenol red, w/o serum). Serum cholesterol acceptor was prepared by mixing 2 parts of Serum Treatment Reagent with 5 parts of human serum, incubated on ice for 20 minutes. The mix was centrifuged at 9,000×g for 10 minutes at 4° C., and supernatants were stored on ice until use. THP-1 cells were incubated for 4 h with 100 uL RPMI media (w/o phenol red, w/o serum), spiked with 10 uL of compound (10× stock in PBS) and 2 uL serum acceptor (2%), or RPMI media spiked with 10 uL PBS and 2 uL serum acceptor (negative control). Following incubation, plates were centrifuged and whole supernatants were transferred to an opaque 96-well plate. Remaining cells were lysed by adding 100 μL of Cell Lysis Buffer and shaking at 500 rpm for 25 minutes protected from light. Cell lysate was resuspended and transferred into an opaque 96-well. Plates containing supernatants or cell lysates were measured in a plate reader at 485 nm (excitation) and 523 nm (emission). Percent (%) cholesterol efflux was measured as RFU supernatant/(RFU supernatant +RFU cell lysate)×100%.
The cholesterol efflux from cells treated with compounds of the disclosure at concentrations of 0.1 mM, 0.3 mM and 1 mM, relative to cholesterol efflux from cells treated with a reference standard, are summarized in Table 1. In the table, A denotes compounds with a CEC of >126% of that of the reference standard and B denotes compounds with a CEC of 106% to 125% of that of the reference standard; 0 denotes compounds with a CEC of 96%-105% of that of the reference standard; and—denotes compounds with a CEC of 75%-95% of that of the reference standard. The reference standard is a non-isomerically pure hydroxypropyl beta-cyclodextrin.

The structures appear in SMILES notation.

Take `CC(C)(O)CO[C@@H]1[C@@H](O)[C@H]2O[C@H]3[C@H](OCC(C)(C)O)[C@@H](O)[C@@H](O[C@H]4[C@H](OCC(C)(C)O)[C@@H](O)[C@@H](O[C@H]5[C@H](OCC(C)(C)O)[C@@H](O)[C@@H](O[C@H]6[C@H](OCC(C)(C)O)[C@@H](O)[C@@H](O[C@H]7[C@H](OCC(C)(C)O)[C@@H](O)[C@@H](O[C@H]8[C@H](OCC(C)(C)O)[C@@H](O)[C@@H](O[C@@H]1[C@@H](CO)O2)O[C@@H]8CO)O[C@@H]7CO)O[C@@H]6CO)O[C@@H]5CO)O[C@@H]4CO)O[C@@H]3CO` [Compound 6]: the “Release of lactate dehydrogenase from cells treated with compounds, relative to reference standard” value was 0 (0 denotes compounds releasing LDH in an amount of 96%-105% of that of the reference standard) in data set [1] (0.1 mM), “+ (+denotes compounds releasing LDH in an amount of 106%-120% of that of the reference standard)” in data set [1] (0.3 mM) and “+ (+denotes compounds releasing LDH in an amount of 106%-120% of that of the reference standard)” in data set [1] (1 mM). Moreover, the “Cholesterol efflux from cells treated with compounds, relative to reference standard” value in data set [2] (0.1 mM) is 0 (0 denotes compounds with a CEC of 96%-105% of that of the reference standard); in data set [2] (0.3 mM) it was “− (—denotes compounds with a CEC of 75%-95% of that of the reference standard)”; in data set [2] (1 mM), “− (—denotes compounds with a CEC of 75%-95% of that of the reference standard)”.
